Legend:
Shep-ER-N-MYC cell line [1] = assay: Flow cytometry (cell number, caspase3, cell cycle), Shep-ER-N-MYC; type: cell-based, human
Excerpt: (§1) Single-cell suspensions were stained with the following monoclonal antibody: α-Active Caspase3 (BD Biosciences, C92-605, 550821, PE) and c-Myc (Abeam, Y69, ab190560). To analyse DNA content, we stained with FxCycle Violet (ThermoFisher Scientific, F10347). To assess proliferation, we used the Click-iT EdU Alexa Fluor 488 Flow Cytometry Assay Kit (ThermoFisher Scientific, C10420) according to manufacturer's instructions. Zombie NIR (Biolegend, 423105) was used to exclude dead cells. The cells were fixed in a 4% solution of PFA, permeabilised with Cytofix/Cytoperm (BD Bioscience, 554714) and washed in Perm/Wash Buffer (BD Bioscience, 554723). Samples were acquired on a MACSQuant VYB (Miltenyi Biotec) and analysed using the FlowJo software (v10.4, Tree star).
(§2) The experiment was performed in a 24 well plate and in technical duplicate. On day 0, 7,800 cells/well for the Shep and 15,000 cells/well for the SKNAS were seeded in 500 μL media. On day 1, the media was removed and 600 μL of media with 100 nM of Tamoxifen, to induce N-Myc, or ethanol as control. On day 2, the respective concentrations of NMT inhibitor were added. After 6 hours, 24 hours, 48 hours and 72 hours the cells were treated according to the general procedures; however, all the media was collected to not loose apoptotic cells, and Trypsin (ThermoFisher Scientific, 25200056) was used to harvest the cells. […]

SKNAS-ER-N-MYC cell line [2] = assay: CellTiter Blue metabolic viability, SKNAS-ER-N-MYC; type: cell-based, human; settings: 96 hours, with or without induction of MYCN
Excerpt: (§3) In the experimental protocols described herein the SKNAS and Shep cell lines were genetically engineered to model differences between high grade neuroblastoma (which are usually marked by MYCN amplifications and with particular poor clinical prognosis) and low grade neuroblastoma. Accordingly, the SKNAS and/or Shep cell lines “with N-MYC induction” described herein will be understood to be cell lines treated with tamoxifen and represent aggressive, high grade type cancer cells. Conversely, the SKNAS and/or Shep cell lines “without N-MYC induction” described herein will be understood to be cell lines not treated with tamoxifen and represent less aggressive forms of cancer cells (Huang et al., Cold Spring Harb. Perspect. Med., 2013, 3(10), 1-22).
(§4) At the respective end points of the experiments 20 μL/well of the CellTiter Blue Assay (Promega, G8081) were added and the cells were incubated at 37° C. for 3 hours. The fluorescence was measured at 570 nm using an EnVision™ plate reader. As a positive control, the highest DMSO concentration was added to the cells (usually 0.4% DMSO); as a negative control, the cells were treated with 10 μg/mL Puromycin and 1 uM Staurosporine (Merck, P7255 and S4400, respectively).
The experiment was performed in a 48 well plate and in technical triplicate. On day 0, 5,500 cells/well were seeded in 200 μL media. […]

Shep-ER-N-MYC cell line [3] = assay: CellTiter Blue metabolic viability, Shep-ER-N-MYC; type: cell-based, human; settings: 72 hours, with or without induction of MYCN
Excerpt: as §3, §4
The experiment was performed in a 96 well plate and in technical quadruplicate. On day 0, 1,000 cells/well were seeded in 50 μL media. […]

SKNAS-ER-N-MYC cell line [4] = assay: Flow cytometry (cell number, caspase3, cell cycle), SKNAS-ER-N-MYC; type: cell-based, human; settings: MYCN activated cells; FIG. 19
Excerpt: as §1, §2

P-493-6 cell line = assay: CellTiter Blue metabolic viability, P-493-6; type: cell-based
Excerpt: The P-493-6 cell line is a non-transformed B cell line that can be genetically engineered to have either “low” levels of c-Myc, “medium” levels of c-Myc or “high” levels of c-Myc. The terms “low”, “medium” and “high” are descriptors commonly used in the art and will be readily understood to mean: • i) “low” levels of c-Myc-a level of MYC expression which represents non-proliferating normal cells (i.e. a level of MYC expression not sufficient to cause the cycling of the cells); • ii) “medium” levels of c-Myc-a level of MYC expression which represents normal proliferating cells; and • iii) ““high” levels of c-Myc-a level of MYC expression which represents enforced/deregulated expression of c-Myc, typically observed in cancerous cells. At the respective end points of the experiments 20 μL/well of the CellTiter Blue Assay (Promega, G8081) were added and the cells were incubated at 37° C. for 3 hours. The fluorescence was measured at 570 nm using an EnVisionTM plate reader. As a positive control, the highest DMSO concentration was added to the cells (usually 0.4% DMSO); as a negative control, the cells were treated with 10 μg/mL Puromycin and 1 uM Staurosporine (Merck, […] and […], respectively). The experiment was performed in a 96 well plate and in technical quadruplicate. […]

MRC5 cells = assay: Metabolic activity assay (MTS assay); type: cell-based; settings: Homo sapiens, MRC5 fibroblast cells, 72 h
Method: Compounds 5 and 7 were also tested for activity in an in vitro metabolic activity assay using the human cell line MRC5. Compounds having activity in inhibiting metabolic activity in the assay are expected to be useful as agents for preventing and/or treating cancer, by virtue of being inhibitors of human NMT1 and/or NMT2.
MRC5 cells (cell type: fibroblast cells) were grown in DMEM media (supplemented with 10% FBS) and were seeded in a 96-well plate, 24 h prior to treatment. Cell suspensions were prepared by adjusting the cell density to the appropriate concentration (as stated in the Table 1 below) and 50 μL of the cell suspension was transferred to wells B-G in columns 2-11 of a 96-well plate. […]
After 72 h, 20 μL MTS reagent (Promega, prepared according to the supplier protocol) was added to each well of the 96-well plate. The plate was incubated at 37° C. for 2 h and the absorbance per well was measured at 490 nm with an EnVision plate reader. The average absorbance value of the negative control (Puromycin-treated cells) was subtracted from each value and the metabolic activity was calculated as a percentage relative to the positive control (DMSO-treated cells). EC50 values were calculated using GraphPad.

human NMT1 (HsNMT1) = biological target: T1, human NMT1 (HsNMT1) (Homo sapiens, UniProt P30419); assay: HsNMT1 fluorescence-based assay (CoA detection by CPM); type: biochemical
T1 sequence (P30419 1-496): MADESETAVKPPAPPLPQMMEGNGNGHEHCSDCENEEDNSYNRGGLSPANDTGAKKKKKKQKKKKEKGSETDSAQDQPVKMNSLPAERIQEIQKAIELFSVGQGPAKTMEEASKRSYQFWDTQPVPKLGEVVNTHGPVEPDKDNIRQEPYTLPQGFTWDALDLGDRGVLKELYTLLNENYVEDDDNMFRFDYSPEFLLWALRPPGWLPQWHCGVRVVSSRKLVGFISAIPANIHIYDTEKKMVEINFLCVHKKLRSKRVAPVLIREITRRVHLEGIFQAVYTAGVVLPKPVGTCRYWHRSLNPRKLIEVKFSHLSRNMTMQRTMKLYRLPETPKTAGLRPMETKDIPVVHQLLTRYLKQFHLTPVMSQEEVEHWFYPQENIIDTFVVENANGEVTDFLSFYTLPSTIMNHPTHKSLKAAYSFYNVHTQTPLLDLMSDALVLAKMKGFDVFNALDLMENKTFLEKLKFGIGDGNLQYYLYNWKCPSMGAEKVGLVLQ
Method: The IC50 values for human NMT1 (HsNMT1) of Compounds 5 and 7 were measured using a sensitive fluorescence-based assay based on detection of CoA by 7-diethylamino-3-(4-maleimido-phenyl)-4-methylcoumarin, as described in Goncalves, V., et al., Analytical Biochemistry, 2012, 421, 342-344 and Goncalves, V., et al., J. Med. Chem, 2012, 55, 3578.

Row | SMILES | cell cycling (Shep-ER-N-MYC cell line [1]; MYCN activated cells, FIG. 17) | cell cycling (Shep-ER-N-MYC cell line [1]; cell line without activated MYCN) | cell death with high versus low levels of MYCN (SKNAS-ER-N-MYC cell line [2]) | cell death with high versus low levels of MYCN (Shep-ER-N-MYC cell line [3]) | cell cycling (SKNAS-ER-N-MYC cell line [4]) | effect on cell viability (P-493-6 cell line; 10 nM, 72 hours, Myc high cell lines) | cell death depending on c-MYC level (P-493-6 cell line; 48 hours and 72 hours, c-MYC high, medium, low) | EC50 (MRC5 cells) | IC50 (human NMT1 (HsNMT1))
1 | Cc1nn(C)c(C)c1CCOc1c(-c2ccc3c(c2)c(CN(C)C)nn3C)ccc(F)c1F [Compound 2, 1-(5-(3,4-difluoro-2-(2-(1,3,5-trimethyl-1H-pyrazol-4-yl)ethoxy)phenyl)-1-methyl-1H-indazol-3-yl)-N,N-dimethylmethanamine] | do not reduce their cycling | stops cycling at 48 hours | increased cell death more rapidly at lower concentrations | increased cell death more rapidly at lower concentrations | do not reduce their cycling | measurable effects on cell viability | clear MYC-dependent increase in cell death | – | –
2 | CNC(=O)c1nn(C)c(C)c1CCOc1cc(Cl)ccc1-c1ccc2ncc(CCN)n2c1 [Compound 7, 4-(2-{2-[3-(2-aminoethyl)imidazo[1,2-a]pyridin-6-yl]-5-chlorophenoxy}ethyl)-N,1,5-trimethyl-1H-pyrazole-3-carboxamide] | – | – | – | – | – | – | – | 37 nM | 0.4 nM
3 | Cc1c(CCOc2cc(Cl)ccc2-c2ccc3ncc(CCN)n3c2)c(C(=O)N(C)C)nn1C [Compound 5, 4-(2-{2-[3-(2-aminoethyl)imidazo[1,2-a]pyridin-6-yl]-5-chlorophenoxy}ethyl)-N,N,1,5-tetramethyl-1H-pyrazole-3-carboxamide] | – | – | – | – | – | – | – | 13 nM | 1.5 nM
